Results: patent US8609669B2, “Potassium channel modulators” (AbbVie Inc., priority 2010, dated 2013)

Molecular target: T1, KCNQ 2/3 channels (HEK293 cells stably expressing human KCNQ2 and KCNQ3 subunits) (Homo sapiens, UniProt O43525+O43526)
T1 construct: expressed in transfected cells; host or cells: HEK293
Experiment: KCNQ2/3 channel activation, thallium flux FLIPR assay (BTC-AM dye)
Assay type: cell-based
Details: for Emax: HEK293, maximum response relative to response of retigabine at 10 μM (set at 100%), read-out: Max. %; for EC50: HEK293 cells expressing human KCNQ2 and KCNQ3, FLIPR thallium flux
Procedure: The following example describes the assay that can be used to identify compounds that activate KCNQ 2/3 channels.
HEK293 cells stably expressing human KCNQ2 and KCNQ3 subunits were seeded in 96-well, black-walled, clear-bottomed, poly-D-lysine coated plates (BD Biosciences, Bedford, Mass.) at a density of 1×10^5 cells per well 24 hours before the assay. On the assay day, BTC-AM dye (Invitrogen, Carlsbad, Calif.) was loaded into the cells by replacing the cell culture medium with 100 μL/well of 4 μM dye in DPBS. Dye loading was allowed to proceed for 2 hours at room temperature and then cells were washed twice in 100 μL/well of assay buffer (in mM: 10 HEPES pH 7.3, 5 glucose, 140 Na-gluconate, 2.5 K-gluconate, 3.6 Ca-gluconate, 2 MgSO4, 0.1 Ouabain) to remove unloaded dye. Cells were incubated in 50 μL of assay buffer before loading onto a FLIPR system (Molecular Devices, Sunnyvale, Calif.). Various concentrations of compounds to be assayed were added to the cells in 50 μL of assay buffer and incubated for 4 minutes. The fluorescence signal was initiated by adding 100 μL of assay buffer containing 6 mM TlNO3 and 10 mM K2SO4. Fluors were excited using the 488-nm line of an argon laser and emission was filtered using a 540±30 nm bandpass filter. Fluorescent signals were recorded for 3 minutes. Responses over baseline values were plotted versus concentrations of test compounds to obtain an EC50 value. The maximum response for each test compound was determined relative to the response produced at 10 μM by retigabine. The maximum response of retigabine at 10 μM was set at 100%.

Row | Emax | EC50 | Compound
1 | 20% | > 10 µM | CC(C)(C)c1c(NC(=O)CC2CCc3ccccc32)nn2cccnc12 (racemic) [Example 172, (±)-N-(3-tert-butylpyrazolo[1,5-a]pyrimidin-2-yl)-2-(2,3-dihydro-1H-inden-1-yl)acetamide]
2 | 158% | < 0.1 µM | Cc1cnc2c(C(C)(C)C)c(NC(=O)CCC3CCCCC3)nn2c1 [Example 178, N-(3-tert-butyl-6-methylpyrazolo[1,5-a]pyrimidin-2-yl)-3-cyclohexylpropanamide]
3 | 127% | 0.5 to 1 µM | Cc1cnc2c(-c3ccc(F)c(C)c3)c(NC(=O)CC(C)(C)c3ccccc3)nn2c1 [Example 149, N-[3-(4-fluoro-3-methylphenyl)-6-methylpyrazolo[1,5-a]pyrimidin-2-yl]-3-methyl-3-phenylbutanamide]
4 | 107% | 0.1 to 0.5 µM | CC(C)(C)/C=C/c1c(NC(=O)Cc2ccc(F)cc2)nn2cccnc12 [Example 161, N-{3-[(1E)-3,3-dimethylbut-1-en-1-yl]pyrazolo[1,5-a]pyrimidin-2-yl}-2-(4-fluorophenyl)acetamide]
5 | 98% | 1 to 10 µM | C/C=C/c1c(NC(=O)CC(C)(C)C)nn2cccnc12 [Example 167, 3,3-dimethyl-N-{3-[(1E)-prop-1-en-1-yl]pyrazolo[1,5-a]pyrimidin-2-yl}butanamide]
6 | 198% | < 0.1 µM | Cc1cnc2c(-c3ccc(F)c(C)c3)c(NC(=O)CC3CC4CCC3C4)nn2c1 (racemic) [Example 150, (±)-exo-2-bicyclo[2.2.1]hept-2-yl-N-[3-(4-fluoro-3-methylphenyl)-6-methylpyrazolo[1,5-a]pyrimidin-2-yl]acetamide]
7 | 51% | 1 to 10 µM | CC(C)(C)OC(=O)Nc1nn2cccnc2c1/C=C/C1CCCCC1 [Example 177, tert-butyl {3-[(E)-2-cyclohexylvinyl]pyrazolo[1,5-a]pyrimidin-2-yl}carbamate]
8 | 40% | 1 to 10 µM | CC(C)(C)CC(=O)Nc1nn2cccnc2c1C#Cc1ccc(OC(F)(F)F)cc1 [Example 156, 3,3-dimethyl-N-(3-{[4-(trifluoromethoxy)phenyl]ethynyl}pyrazolo[1,5-a]pyrimidin-2-yl)butanamide]
9 | 128% | 0.5 to 1 µM | O=C(CC12CC3CC(CC(C3)C1)C2)Nc1nn2cccnc2c1-c1ccc(Cl)cc1 [Example 162, 2-(adamantan-1-yl)-N-[3-(4-chlorophenyl)pyrazolo[1,5-a]pyrimidin-2-yl]acetamide]

Continued, compound first:

Row | Compound | Emax | EC50
10 | CC(C)(C)CC(=O)Nc1nn2cccnc2c1-c1cccnc1 [Example 110, 3,3-dimethyl-N-[3-(pyridin-3-yl)pyrazolo[1,5-a]pyrimidin-2-yl]butanamide] | 8% | > 10 µM
11 | Cc1cnc2c(-c3cccc(OC(F)(F)F)c3)c(NC(=O)CC(C)(C)C)nn2c1 [Example 3, 3,3-dimethyl-N-{6-methyl-3-[3-(trifluoromethoxy)phenyl]pyrazolo[1,5-a]pyrimidin-2-yl}butanamide] | 141% | 0.1 to 0.5 µM
12 | Cc1ccnc2c(Cc3ccc(F)cc3)c(NC(=O)CCC3CCCC3)nn12 [Example 71, 3-cyclopentyl-N-[3-(4-fluorobenzyl)-7-methylpyrazolo[1,5-a]pyrimidin-2-yl]propanamide] | 141% | < 0.1 µM
13 | O=C(CCC1CCCC1)Nc1nn2cccnc2c1-c1cccc(F)c1 [Example 135, 3-cyclopentyl-N-[3-(3-fluorophenyl)pyrazolo[1,5-a]pyrimidin-2-yl]propanamide] | 143% | 0.1 to 0.5 µM
14 | Cc1cnc2c(-c3cccc(C(F)(F)F)c3)c(NC(=O)CC(C)(C)C)nn2c1 [Example 63, 3,3-dimethyl-N-{6-methyl-3-[3-(trifluoromethyl)phenyl]pyrazolo[1,5-a]pyrimidin-2-yl}butanamide] | 125% | 0.1 to 0.5 µM
15 | Cc1cnc2c(Cc3ccc(F)cc3)c(NC(=O)CCC3CCCCC3)nn2c1 [Example 77, 3-cyclohexyl-N-[3-(4-fluorobenzyl)-6-methylpyrazolo[1,5-a]pyrimidin-2-yl]propanamide] | 133% | < 0.1 µM
16 | Cc1cc(C)n2nc(NC(=O)Cc3ccc(F)cc3)c(-c3ccccc3)c2n1 [Example 96, N-(5,7-dimethyl-3-phenylpyrazolo[1,5-a]pyrimidin-2-yl)-2-(4-fluorophenyl)acetamide] | 206% | 0.1 to 0.5 µM
17 | CC(C)(C)c1c(NC(=O)Cc2cc(F)cc(F)c2)nn2cccnc12 [Example 127, N-(3-tert-butylpyrazolo[1,5-a]pyrimidin-2-yl)-2-(3,5-difluorophenyl)acetamide] | 147% | 0.1 to 0.5 µM
18 | O=C(CC12CC3CC(CC(C3)C1)C2)Nc1nn2cccnc2c1-c1ccc(OC(F)(F)F)cc1 [Example 142, 2-(adamantan-1-yl)-N-{3-[4-(trifluoromethoxy)phenyl]pyrazolo[1,5-a]pyrimidin-2-yl}acetamide] | 152% | 1 to 10 µM
19 | CC(C)c1c(NC(=O)CCC2CC2)nn2cccnc12 [Example 118, 3-cyclopropyl-N-(3-isopropylpyrazolo[1,5-a]pyrimidin-2-yl)propanamide] | 14% | > 10 µM
20 | Cc1ccc(-c2c(NC(=O)Cc3ccccc3)nn3cccnc23)cc1F [Example 19, N-[3-(3-fluoro-4-methylphenyl)pyrazolo[1,5-a]pyrimidin-2-yl]-2-phenylacetamide] | 77% | 1 to 10 µM
21 | Cc1cnc2c(-c3ccc(Cl)c(C)c3)c(NC(=O)CCc3ccccc3)nn2c1 [Example 44, N-[3-(4-chloro-3-methylphenyl)-6-methylpyrazolo[1,5-a]pyrimidin-2-yl]-3-phenylpropanamide] | 73% | 1 to 10 µM
22 | O=C(CC12CC3CC(CC(C3)C1)C2)Nc1nn2cccnc2c1-c1ccc2ccccc2c1 [Example 116, 2-(adamantan-1-yl)-N-[3-(2-naphthyl)pyrazolo[1,5-a]pyrimidin-2-yl]acetamide] | 98% | 0.5 to 1 µM
23 | Cc1cnc2c(-c3ccc(C)c(Cl)c3)c(NC(=O)Cc3ccc(F)cc3)nn2c1 [Example 72, N-[3-(3-chloro-4-methylphenyl)-6-methylpyrazolo[1,5-a]pyrimidin-2-yl]-2-(4-fluorophenyl)acetamide] | 247% | 0.1 to 0.5 µM
24 | CC(C)(C)c1c(NC(=O)/C=C/c2ccccc2)nn2cccnc12 [Example 136, (2E)-N-(3-tert-butylpyrazolo[1,5-a]pyrimidin-2-yl)-3-phenylacrylamide] | 8% | > 10 µM
25 | CC(C)(C)CC(=O)Nc1nn2cccnc2c1/C=C/c1ccc(Cl)cc1 [Example 111, N-{3-[(E)-2-(4-chlorophenyl)vinyl]pyrazolo[1,5-a]pyrimidin-2-yl}-3,3-dimethylbutanamide] | 59% | > 10 µM
26 | COc1cccc(CC(=O)Nc2nn3c(C)ccnc3c2-c2ccc(Cl)cc2)c1 [Example 41, N-[3-(4-chlorophenyl)-7-methylpyrazolo[1,5-a]pyrimidin-2-yl]-2-(3-methoxyphenyl)acetamide] | 136% | 1 to 10 µM
27 | CC(C)(C)c1c(NC(=O)CC2CC3CCC2C3)nn2cccnc12 (racemic) [Example 121, (±)-exo-2-bicyclo[2.2.1]hept-2-yl-N-(3-tert-butylpyrazolo[1,5-a]pyrimidin-2-yl)acetamide] | 150% | < 0.1 µM
